Marks after values point to notes of the source that are not given here.
Key:
[1] = Dose potency projection: rat ivGTT exposure response Emax model; assay type: in vivo; conditions: single SC dose, ivGTT 16 hours post-dosage
Procedure: The intravenous glucose tolerance test (ivGTT) in the rat is used to estimate relative potency of compounds of the present invention in comparison to semaglutide. […] Exposure is measured at the time of the ivGTT, and for exposure response modeling, the insulin AUC in response to the ivGTT is used as the primary endpoint. […] Both data sets are fit simultaneously and E0 and Emax values are constrained to be the same for both compounds. Only ED50 values are fit separately for the compounds.

[2] = Rat in vivo insulin secretion following intravenous glucose (IVGTT); conditions: s.c. 16 hour prior to glucose
In short: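 Male Wistar rats dosed s.c. with vehicle or 0.1–10 nmol/kg 16 h before glucose, then fasted and anesthetized with pentobarbital i.p. (65 mg/kg). Glucose ([…]) given after a time-zero bleed; plasma sampled at 2, 4, 6, 10, 20, 30 min. Glucose measured by analyzer, insulin by MSD immunoassay.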

[3] = Weight loss, body composition and hepatic steatosis in DIO mice; assay type: in vivo, mouse; conditions: for Blood Glucose: Day 15
In short: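 C57/BL6 DIO mice, individually housed at 24 °C, 12 h light/dark, food and water ad libitum; daily body weight and food intake, weight change versus pre-dose value of the same animal. Day 15: tail-vein glucose, then liver triglycerides and plasma cholesterol; ANOVA with Dunnett's test, ED50 for weight loss by non-linear fit.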

[4] = Energy metabolism in DIO mice (indirect calorimetry); assay type: in vivo, mouse; conditions: SC every three days for 22 days, from week 2, semaglutide 30 nmol/kg
Procedure: The effects on energy metabolism in DIO mice for compounds of the present invention are evaluated in 26 week old C57/B16 DIO male mice, weighing 43-50 g. Mice are individually housed in a temperature-controlled (24° C.) facility with a 12 hour light/dark cycle (lights on 22:00), and with free access to food TD95217 (Teklad) and water. After 2 weeks acclimation to the facility, mice are randomized to treatment groups (n=6/group) based on body weight so each group has similar starting mean body weight. Animals are placed in a PhenoMaster/LabMaster calorimeter (TSE Systems, Chesterfield, Mo.) for 3 days of acclimation. Vehicle control (20 mM citrate buffer at pH 7.0, 10 ml/kg), compounds of the present invention, or a long-acting GLP1 analogue, semaglutide, (30 nmol/kg) are subcutaneously administered to ad libitum fed DIO mice 30-90 minutes prior to the onset of the dark cycle every three days for 22 days. Heat and respiratory quotient (RER) are measured by indirect calorimetry as described using an open-circuit calorimetry system. RER is the ratio of the volume of CO2 produced (Vco2) to the volume of O2 consumed (Vo2). Heat is calculated with full body weight considered: VO2=FlowML*(V1+V2)/N2Ref*Animal weight*100) VCO2=FlowML*dCO2/Animal weight*100) Heat=(CVO2*VO2+CVCO2*VCO2)/1000; where CVO2=3.941; CVCO2=1.106

[5] = Gastric emptying in DIO mice; assay type: in vivo, mouse; conditions: 30 nmol/kg SC, semi-liquid diet, 2 hours
Procedure: The effects on gastric emptying in DIO mice for compounds of the present invention are evaluated in 23 week old diet-induced obese (DIO) male mice (Harlan). The mice are fasted for 16-17 hours. During the start of fasting period the mice are dosed subcutaneously with vehicle control (20 mM citrate buffer at pH 7.0); escalating doses of compounds of the present invention (3, 10, 30 and 100 nmol/kg), or a long-acting GLP1 analogue, semaglutide, (30 nmol/kg). The next day, mice are administered 0.5 ml (0.5 gram) of freshly prepared semi-liquid diet (2 minutes apart) by oral gavage. Water is removed at this time to prevent dilution of administered diet. Two hours after diet administration, mice are euthanized two minutes apart by CO2 gas. The stomach is removed while clamped at both cardiac and pyloric openings, then clamps removed and the full stomach weighed in a weigh boat. The stomach is then incised and contents removed. The stomach is washed and dried and re-weighed to assess food contents in stomach. The % gastric emptying equals 100×(1−(food remaining in stomach/food orally administered)).

[6] = Plasma corticosterone in Sprague Dawley rats; assay type: in vivo, rat
Procedure: Plasma corticosterone levels are evaluated using Sprague Dawley Rats (Harlan, Indianapolis), weighing approximately 220 g and acclimated for at least 72 hours before handling. The rats are then dosed with vehicle (20 mM citrate buffer, pH 7), semaglutide (10 nmol/kg), or compounds of the present invention at 3, 10 or 30 nmol/kg s.c. with 8 rats per dose group. The rats are decapitated 16 hours later. Blood is collected into EDTA tubes on ice, then centrifuged 5 minutes at 8000 RPM in a Eppendorf 5402 tabletop centrifuge. Plasma is stored at −80° C. until analysis.
For corticosterone analysis, corticosterone standards (Sigma, 27840) are prepared by serial dilutions in HPLC-grade methanol, H2O and the addition of 5% charcoal stripped rat serum (Bioreclamation, RATSRM-STRPD-HEV). Rat plasma samples are diluted with PBS, precipitated with cold methanol, incubated for 20 minutes at −20° C., and then centrifuged at 14,000 RPM with an Eppendorf 5417R at 4° C. Supernatants are extracted, evaporated under a stream of N2 gas, and reconstituted in MeOH/H2O (1:1) solution.

semaglutide [reference compound]
ED50 (Emax model, insulin AUC in ivGTT) [1]: 0.6 ± 0.2 nmol/kg | % max increase of insulin AUC [2]: 231 +/− 13% | ED50 for insulin, rat IVGTT [2]: 0.70 nmol/kg | % Change from starting body weight ([3]; Table 8, 10 nmol/kg): −12.36 ± 1.00 % | % Change from starting fat mass ([3]; Table 8, 10 nmol/kg): −18.21 ± 2.24 % | % Change from starting body weight ([3]; Table 8, 30 nmol/kg): −14.20 ± 1.01 % | % Change from starting fat mass ([3]; Table 8, 30 nmol/kg): −21.90 ± 2.07 % | % Change from starting body weight ([3]; Table 8, 100 nmol/kg): −19.30 ± 1.38 % | % Change from starting fat mass ([3]; Table 8, 100 nmol/kg): −33.51 ± 3.30 % | % Change from starting body weight ([3]; Table 9, 30 nmol/kg): −17.03 ± 0.98 % | % Change from starting fat mass ([3]; Table 9, 30 nmol/kg): −35.94 ± 4.09 % | Plasma Cholesterol ([3]; Table 11, 10 nmol/kg): 226.8 ± 13.86 mg/dL | Plasma Triglycerides ([3]; Table 11, 10 nmol/kg): 27.36 ± 3.56 mg/dL | Blood Glucose ([3]; Table 11, 10 nmol/kg): 147.6 ± 6.13 mg/dL | Plasma Cholesterol ([3]; Table 11, 30 nmol/kg): 229.8 ± 10.96 mg/dL | Plasma Triglycerides ([3]; Table 11, 30 nmol/kg): 27.9 ± 6.01 mg/dL | Blood Glucose ([3]; Table 11, 30 nmol/kg): 146.8 ± 8.43 mg/dL | Plasma Cholesterol ([3]; Table 11, 100 nmol/kg): 218.4 ± 18.70 mg/dL | Plasma Triglycerides ([3]; Table 11, 100 nmol/kg): 36.46 ± 5.34 mg/dL | Blood Glucose ([3]; Table 11, 100 nmol/kg): 134.3 ± 9.22 mg/dL | Liver Triglycerides ([3]; Table 12, 30 nmol/kg): 67.63 ± 23.40 mg/g tissue | Plasma Cholesterol ([3]; Table 12, 30 nmol/kg): 161.0 ± 13.92 mg/dL | Blood Glucose ([3]; Table 12, 30 nmol/kg): 136.3 ± 3.81 mg/dL | increase in metabolic rate compared to the control group [4]: no effect on metabolic rate | Percent Gastric Emptying [5]: 30.56 +/− 7.53** % | Corticosterone, Mean ([6]; 10 nmol/kg s.c., 16 hours): 274.57 ng/mL | increase in plasma corticosterone levels over control ([6]; Example 1 at 3, 10, 30 nmol/kg, semaglutide 10 nmol/kg): approximately 4 ×
